pKd, pKi: −log10 of the molar value.
How the values were obtained:
[1] = biological target: T1, neurotensin receptor subtype 1 (NTR1) (Homo sapiens, UniProt P30989); experiment: Competition binding of BT-neurotensin to NTR1 receptor arrays on CMT-GAPS slides; conditions: BT-NT 2 nM, unlabeled ligand 1 μM
T1 construct: purchased Perkin Elmer Life Science (Boston, Mass.)

Go = Go (Homo sapiens, UniProt P09471); conditions: unactivated form, reconstituted vesicle systems (McEwen et al.); cited from earlier work
Gs = Gs (Homo sapiens, UniProt P63092); conditions: unactivated form, reconstituted vesicle systems (McEwen et al.); cited from earlier work
Gi1 = Gi1 (Homo sapiens, UniProt P63096); conditions: unactivated form, reconstituted vesicle systems (McEwen et al.); cited from earlier work
Gi2 = Gi2 (Homo sapiens, UniProt P04899); conditions: unactivated form, reconstituted vesicle systems (McEwen et al.); cited from earlier work
β1 = β1 (Homo sapiens, UniProt P08588); experiment: Family-specific adrenergic receptor array, competition with BODIPY-TMR-CGP12177; assay type: binding
Description: FIGS. 9A, 9B and 9C illustrate GPCR theme arrays used to differentiate the selectivity of compounds of interest to receptors relating to a single subfamily. Multiple arrays of β1, β2 and α2A were fabricated on an APTES-modified gold surface. Within each array there were three columns of five replicates, corresponding to β1, β2 and α2A from the left to right column, respectively. The array incubated with 5 nM BT-CGP only was used as positive control (FIG. 9A). […] Three receptors belonging to the same family, adrenergic receptors, were arrayed within a single grid, and replicates of this grid were arrayed on a single slide. The receptors were β1, β2 and α2A, respectively.

α2A = biological target: T2, α2A (Homo sapiens, UniProt P08913); conditions: known value; cited from earlier work
T2 sequence (P08913 1-465): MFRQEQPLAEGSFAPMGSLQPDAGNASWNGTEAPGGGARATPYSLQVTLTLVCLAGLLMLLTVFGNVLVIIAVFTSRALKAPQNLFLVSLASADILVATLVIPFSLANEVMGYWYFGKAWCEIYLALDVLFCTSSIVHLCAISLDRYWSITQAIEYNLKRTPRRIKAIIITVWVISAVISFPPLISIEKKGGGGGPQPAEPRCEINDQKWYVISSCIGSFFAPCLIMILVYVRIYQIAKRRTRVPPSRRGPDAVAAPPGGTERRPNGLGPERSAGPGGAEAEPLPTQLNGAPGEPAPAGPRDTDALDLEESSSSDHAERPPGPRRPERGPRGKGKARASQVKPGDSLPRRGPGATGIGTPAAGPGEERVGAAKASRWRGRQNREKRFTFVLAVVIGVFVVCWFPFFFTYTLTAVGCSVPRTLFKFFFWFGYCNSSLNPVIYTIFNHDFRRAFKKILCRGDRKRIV

Sequence of β1 (P08588 whole entry): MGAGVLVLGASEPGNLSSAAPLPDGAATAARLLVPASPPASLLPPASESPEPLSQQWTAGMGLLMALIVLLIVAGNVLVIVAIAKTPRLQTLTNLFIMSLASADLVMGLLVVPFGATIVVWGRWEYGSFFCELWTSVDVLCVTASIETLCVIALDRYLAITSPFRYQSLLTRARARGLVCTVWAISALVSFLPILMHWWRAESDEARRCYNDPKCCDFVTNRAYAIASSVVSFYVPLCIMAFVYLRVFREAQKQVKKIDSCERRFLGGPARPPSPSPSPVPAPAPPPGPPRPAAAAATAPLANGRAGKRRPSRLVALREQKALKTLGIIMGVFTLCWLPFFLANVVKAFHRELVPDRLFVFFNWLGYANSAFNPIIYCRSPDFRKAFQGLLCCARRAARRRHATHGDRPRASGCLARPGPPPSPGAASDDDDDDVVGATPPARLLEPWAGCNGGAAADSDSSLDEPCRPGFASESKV
T1 sequence (P30989 whole entry): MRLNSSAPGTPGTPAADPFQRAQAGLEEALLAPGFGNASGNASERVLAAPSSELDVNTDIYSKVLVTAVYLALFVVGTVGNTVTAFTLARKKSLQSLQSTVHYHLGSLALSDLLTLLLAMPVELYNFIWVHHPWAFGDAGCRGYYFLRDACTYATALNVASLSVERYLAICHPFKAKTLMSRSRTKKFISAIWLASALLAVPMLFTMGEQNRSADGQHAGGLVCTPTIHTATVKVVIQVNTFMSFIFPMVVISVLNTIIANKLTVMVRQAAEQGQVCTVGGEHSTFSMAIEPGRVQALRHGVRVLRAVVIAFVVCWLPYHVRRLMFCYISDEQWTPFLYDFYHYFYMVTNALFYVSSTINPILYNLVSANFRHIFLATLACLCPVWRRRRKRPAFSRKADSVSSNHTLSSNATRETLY
Sequence of Gi1 (P63096 whole entry): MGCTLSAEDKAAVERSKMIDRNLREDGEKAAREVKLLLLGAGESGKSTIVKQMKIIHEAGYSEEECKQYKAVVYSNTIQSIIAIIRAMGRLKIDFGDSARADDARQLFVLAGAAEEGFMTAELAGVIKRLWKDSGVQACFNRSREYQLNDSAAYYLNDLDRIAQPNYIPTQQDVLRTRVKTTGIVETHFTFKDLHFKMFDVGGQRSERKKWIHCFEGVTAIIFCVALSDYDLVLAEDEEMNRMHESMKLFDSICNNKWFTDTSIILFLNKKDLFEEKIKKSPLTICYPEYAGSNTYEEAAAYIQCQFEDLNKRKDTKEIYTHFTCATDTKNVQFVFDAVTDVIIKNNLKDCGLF
Sequence of Gi2 (P04899 whole entry): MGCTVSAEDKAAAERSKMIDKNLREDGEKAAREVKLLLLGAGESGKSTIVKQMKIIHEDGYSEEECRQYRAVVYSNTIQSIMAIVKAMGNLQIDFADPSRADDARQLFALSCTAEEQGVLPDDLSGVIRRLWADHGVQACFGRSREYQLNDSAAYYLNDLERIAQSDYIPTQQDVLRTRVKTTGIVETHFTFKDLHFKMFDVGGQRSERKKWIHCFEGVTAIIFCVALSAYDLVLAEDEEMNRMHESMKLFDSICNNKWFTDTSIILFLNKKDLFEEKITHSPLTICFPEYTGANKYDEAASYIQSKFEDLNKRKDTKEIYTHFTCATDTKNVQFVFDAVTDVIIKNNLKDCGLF
Sequence of Go (P09471 whole entry): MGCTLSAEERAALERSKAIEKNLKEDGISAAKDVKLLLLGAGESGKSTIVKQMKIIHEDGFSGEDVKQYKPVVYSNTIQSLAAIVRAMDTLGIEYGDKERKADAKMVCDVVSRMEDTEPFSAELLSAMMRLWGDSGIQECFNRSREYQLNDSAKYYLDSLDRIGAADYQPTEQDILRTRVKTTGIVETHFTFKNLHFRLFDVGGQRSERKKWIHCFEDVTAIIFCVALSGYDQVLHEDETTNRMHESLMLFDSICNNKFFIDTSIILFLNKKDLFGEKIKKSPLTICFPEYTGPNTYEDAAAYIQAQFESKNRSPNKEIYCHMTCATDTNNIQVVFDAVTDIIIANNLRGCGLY
Sequence of Gs (P63092 whole entry): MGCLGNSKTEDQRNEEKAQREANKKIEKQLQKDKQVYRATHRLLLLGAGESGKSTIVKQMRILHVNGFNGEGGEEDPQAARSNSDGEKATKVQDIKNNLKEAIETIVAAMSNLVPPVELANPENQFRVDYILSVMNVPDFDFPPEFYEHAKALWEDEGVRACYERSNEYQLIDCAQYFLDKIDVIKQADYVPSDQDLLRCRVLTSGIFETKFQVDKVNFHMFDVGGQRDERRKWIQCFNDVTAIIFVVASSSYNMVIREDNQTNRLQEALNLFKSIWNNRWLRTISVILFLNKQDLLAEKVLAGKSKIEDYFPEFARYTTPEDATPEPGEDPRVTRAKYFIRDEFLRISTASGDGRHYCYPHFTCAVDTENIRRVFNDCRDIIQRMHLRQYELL

Compound: CC(C)(C)NCC(O)COc1cccc2[nH]c(=O)[nH]c12 (centres unmarked) [CGP12177]
- effect on intensities of NTR1 spots (inhibition of BT-NT binding) [1]: no significant decrease

Compound: BODIPY-FL-GTPγS
- pKd (Go): 8.22
- pKd (Gs): 7.15
- pKd (Gi1): 6.82
- pKd (Gi2): 6.52

Compound: Cc1ccc(OCC(O)C(C)NC(C)C)c2c1CCC2 (centres unmarked) [ICI 118551]
- fluorescence intensity of the β1 receptors (β1; 5 nM BODIPY-TMR-CGP12177, 10 nM ICI118551): remains almost at the same level
- fluorescence intensity of β1 (β1; 5 nM BODIPY-TMR-CGP12177, 500 nM ICI118551): dramatically decreases
- pKi (α2A): < 5.00

Source: patent publication US8257965B2, “Arrays of biological membranes and methods and use thereof” (Corning Incorporated, priority 2001, dated 2012)
